# According to patent US7781420B2, “Use of clodronic acid for treatment podotrochlosis” (Omnimedic GbR, priority 2005, dated 2010):
# Assays:
# podotrochlosis = conditions: in vivo; cited from earlier work
# [1] = test system: horses who suffer from podotrochlosis; experiment: treatment of podotrochlosis with associated osteoporosis in horses by two to five intramuscular injections; type: in vivo, horse; conditions: for therapeutic success in the treatment of podotrochlosis with associated osteoporosis: intramuscular injections
# Protocol: To achieve the desired therapeutic success or else prophylactic success, a dosage regimen in which the pharmaceutical is administered by two to five intramuscular injections within a period of up to several days, such as approximately 3 consecutive days, but preferably within one day, must be adhered to. Here, the administration of the pharmaceutical may be effected in a dosage of, per injection, 0.125-2.5 mg, preferably 0.25-1 mg, particularly preferably approximately 0.6 mg of active ingredient/kg body weight. For a horse with a weight of 500 kg, a total dose of 250-2500 mg, preferably 400-1500 mg, especially preferably approximately 800 to 1000 mg of active ingredient, distributed over 2 to 5 injections, preferably 3 injections, is aimed at. With a horse with a weight of 500 kg, it is therefore especially preferable to administer 900 mg of active ingredient, divided over 3 injections of 300 mg each, within one day. The pharmaceutical is injected intramuscularly, preferably into the neck, chest and gluteal muscles of the horse. In the case of 3 injections, it is preferred to administer two injections into the neck muscles (on the left and right side), especially preferably approximately one hand's width under the crest and approximately one hand's width above the scapula, and one injection into the breast muscles. The 2 to 5 injections are expediently given directly one after the other.
# After approximately 14 days, a pronounced improvement of the clinical symptoms is observed in nearly all horses. After approximately 4-6 weeks, the clinical picture has stabilized and established such that the therapeutic success can be defined. After approximately 10 to 14 months, the clinical symptoms will, as a rule, deteriorate. The treatment may then be repeated once or more than once, with equally good success. In this manner, the treated horses can be kept free from lameness over several years.
# For example, the therapeutic success in a gelding who had suffered from podotrochlosis and who had not been able to be ridden, let alone used as a sports horses for about 3 years was so good after employing the pharmaceutical described in accordance with the invention that the gelding could afterwards be used intensively and successfully for 6 years as a showjumper.
Compound,effect on podotrochlosis (podotrochlosis),side effects (podotrochlosis),side effects ([1]; at least 350 horses pretreated with conventional therapies without success),"time until pronounced improvement of the clinical symptoms is observed in nearly all horses ([1]; horses, after treatment)","time until the clinical picture has stabilized and established ([1]; horses, after treatment)",therapeutic success in the treatment of podotrochlosis with associated osteoporosis ([1]; horses),"therapeutic success in the treatment of podotrochlosis with associated osteoporosis ([1]; horses, listed as pharmaceutical described in accordance with the invention)","freedom from lameness ([1]; many of the treated horses, regular use of the pharmaceutical)","time used intensively and successfully as a showjumper after treatment ([1]; single gelding, not able to be ridden for about 3 years before treatment) [years]"
O=P(O)(O)C(Sc1ccc(Cl)cc1)P(=O)(O)O [tiludronate],healing effect,substantial side effects such as colic,–,–,–,–,–,–,–
"O=P(O)(O)C(Cl)(Cl)P(=O)(O)O [clodronic acid, (dichloromethylene)bis(phosphonic acid)]",–,–,without suffering side effects,approximately 14 days,4-6 weeks,outstanding therapeutic successes,successful therapy,free from lameness for several years,6
